Assay results from article PMC10721633 (Nature Communications, 2023).

What was measured:
[1] = biological target: T1, DnaA^104-446 (Bacillus subtilis, UniProt P05648); experiment: cryo-EM structure; format: binding; conditions: BUS DNA scaffold, 2 uM ATP, 1 mM magnesium acetate, pH 7.5, 37 °C, glutaraldehyde crosslinked
T1 construct: domains III-IV, residues 104-446; His14-SUMO tag cleaved; E. coli BL21(DE3)-pLysS; heptamer on tailed BUS DNA, glutaraldehyde crosslinked

[2] = biological target: T2, DnaA (Bacillus subtilis, UniProt P05648); experiment: single-molecule TIRF DNA strand separation; format: biochemical; conditions: BUS DNA scaffold, 50 nM DnaA, 10 mM magnesium acetate, 100 mM potassium glutamate, pH 7.6
T2 construct: full length; His14-SUMO tag cleaved; E. coli BL21(DE3)-pLysS

[3] = biological target: the molecule itself; experiment: cryo-EM structure; 4 µM partially ssDNA scaffold with 40 µM DnaA^104–446 monomer, 10 mM HEPES pH 7.5, 100 mM potassium glutamate, 1 mM magnesium acetate, 2 µM ATP, 37 °C 10 min; cross-linked with 0.1% glutaraldehyde, multimeric complex isolated by SEC (Superdex 200); oligomer assembled on DNA

T2 sequence (P05648 whole entry): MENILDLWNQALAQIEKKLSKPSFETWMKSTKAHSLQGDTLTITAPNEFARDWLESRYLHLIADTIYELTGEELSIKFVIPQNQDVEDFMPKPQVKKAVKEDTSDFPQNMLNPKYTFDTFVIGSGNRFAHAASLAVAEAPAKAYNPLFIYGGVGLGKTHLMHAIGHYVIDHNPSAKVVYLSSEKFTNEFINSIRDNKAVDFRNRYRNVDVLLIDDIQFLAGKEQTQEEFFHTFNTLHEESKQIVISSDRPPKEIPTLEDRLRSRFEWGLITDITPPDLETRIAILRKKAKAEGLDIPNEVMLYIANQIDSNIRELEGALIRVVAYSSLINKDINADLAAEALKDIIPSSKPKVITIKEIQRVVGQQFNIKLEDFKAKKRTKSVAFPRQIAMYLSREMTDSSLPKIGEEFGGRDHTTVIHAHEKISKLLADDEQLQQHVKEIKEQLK

Molecule | cryo-EM structure [1] | single-molecule TIRF DNA strand separation [2] | stoichiometry N [3]
Nc1ncnc2c1ncn2[C@@H]1O[C@H](COP(=O)(O)OP(=O)(O)OP(=O)(O)O)[C@@H](O)[C@H]1O [ATP] | The cryo-EM model reveals seven DnaA^ATP protomers (termed DnaA1-7) engaging the DNA scaffold | The addition of DnaA^ATP to the immobilized DNA scaffolds stimulated a reduction in the number | 
DnaA^104–446 (Bacillus subtilis DnaA lacking domains I-II; domains III-IV) (domain or fragment, UniProt P05648 104-446, looked up, also called DnaA1-7 (the seven protomers in the BUS complex); DnaA^ATP; source: E. coli BL21(DE3)-pLysS, purified (HisTrap, HiTrap Heparin, SUMO protease digestion, second HisTrap flow-through); not shown: His14, N-terminal, cleaved; SUMO, N-terminal, cleaved) SDFPQNMLNPKYTFDTFVIGSGNRFAHAASLAVAEAPAKAYNPLFIYGGVGLGKTHLMHAIGHYVIDHNPSAKVVYLSSEKFTNEFINSIRDNKAVDFRNRYRNVDVLLIDDIQFLAGKEQTQEEFFHTFNTLHEESKQIVISSDRPPKEIPTLEDRLRSRFEWGLITDITPPDLETRIAILRKKAKAEGLDIPNEVMLYIANQIDSNIRELEGALIRVVAYSSLINKDINADLAAEALKDIIPSSKPKVITIKEIQRVVGQQFNIKLEDFKAKKRTKSVAFPRQIAMYLSREMTDSSLPKIGEEFGGRDHTTVIHAHEKISKLLADDEQLQQHVKEIKEQLK |  |  | 7
